Results: patent US5759556A, “Skin care compositions containing certain cyclic aliphatic unsaturated compounds and retinol or retinyl ester” (Chesebrough-Pond's USA Co., Division of Conopco, Inc., priority 1996, dated 1998)
Like-named read-outs stand apart in the source and are kept apart here. One block for each molecule: values may come before it.

Columns and labels:
keratinocytes [1] = test: 3H-Thymidine incorporation and keratinocyte proliferation (Example 1A); assay type: cell-based, Human; settings: for mean Thymidine incorp./μg protein ± s.d: 24 hours, n = 3
Method: (§1) Human keratinocytes, isolated from neonatal foreskin by trypsin treatment were grown in Dulbecco Modification Eagle (DME) Hams F12 (1:1) medium/10% fetal calf serum in the presence of irradiated 3T3 mouse fibroblasts for establishing dividing keratinocyte colonies. Cells were grown under the above condition until their second passage and kept frozen for future use. Frozen second passage keratinocytes were thawed and plated into the above medium and grown for five days before they were switched to a serum-free MCDB 153-based medium keratinocyte growth medium (KGM) from Clonetics Corporation, San Diego, Calif., containing 0.15 mM Ca, or keratinocyte serum-free media (KSFM) from GIBCO containing 0.09 mM Ca). On day 7, when the cells were 80-90% confluent, they were trypsinized and plated in the serum-free medium for the various experiments.
The incorporation of ^3 H-thymidine by cultured keratinocytes was used as an assay of keratinocyte proliferation. Thymidine is one of four deoxynucleosides which are the monomeric units of DNA, the universal library of genetic information in the animal kingdom. Prior to cell division of a somatic cell such as a keratinocyte, the complete genome of the cell undergoing cell division is replicated. This involves large scale DNA synthesis by the cell and enables both daughter cells to receive identical copies of the genetic material. When ^3 H-thymidine is included in the culture media of keratinocytes which are synthesizing DNA in preparation for cell division then the labelled nucleoside is incorporated into the newly synthesized DNA. The extent of incorporation of ^3 H-thymidine into a population of cells is proportional to the rate of DNA synthesis by this population of cells and therefore an indication of their cellular proliferation.
Keratinocytes (that were cultured as described above) were plated in 24 well plates at a density of about 20,000 cells per well in 1 ml media. After incubation for four days or until the cells were 60-70% confluent, the media was changed. Test compounds were added (in triplicate) to the wells 24 hours after the media change, and four hours later 1μCi ^3 H-Thymidine in 50 μl media was added per well. Cells were incubated for a further 24 hours. Media was removed from the cells, 10% ice cold trichloroacetic acid (TCA) added and plates were incubated on ice for 30 minutes. Cells were washed five times with 5% TCA and allowed to dissolve in 500 μl 0.1M NaOH for at least one hour (usually overnight). The preparations were neutralized with 0.1M HCl; 50 μl of the cell preparation was used to determine total protein content. Disintegrations per minute (DPM) from ^3 H labelling of DNA was determined by liquid scintillation counting of 900 μl of the cell preparation. Thymidine incorporation results were expressed as DPM/μg protein.

keratinocytes [2] = test: Transglutaminase assay and keratinocyte differentiation, TGase normalized to DNA (Example 1B); assay type: cell-based, Human; settings: for keratinocyte differentiation / transglutaminase level (in words): […]10^-7 M, […]10^-8 M and […]10^-9 M, vs ethanol control; for mean TGase/DNA × 10^-4 ± s.d: 72 hours, n = 3
Method: as §1
(§2) During the process of terminal differentiation in the epidermis, a 15 nm thick layer of protein, known as the cornified envelope (CE) is formed on the inner surface of the cell periphery. The CE is composed of numerous distinct proteins which have been cross-linked together by the formation of N ^ε -(γ-glutamyl) lysine isodipeptide bonds catalyzed by the action of at least two different transglutaminases (TGases) expressed in the epidermis. TGase I is expressed in abundance in the differentiated layers of the epidermis, especially the granular layer, but is absent in the undifferentiated basal epidermis. Thus TGase I is a useful marker of epidermal keratinocyte differentiation with high TGase I levels indicating a more differentiated state. An ELISA based TGase I assay, using a TGase I antibody, was used to assess the state of differentiation of the cultured keratinocytes in the examples that follow.
Keratinocytes (cultured as described above) were plated in 96 well plates at a density of 3,000 cells per well in 200 μl media. After incubation for four days the media was changed to media containing test compounds (six replicates per test). The cells were cultured for a further 72 hours after which time the media was aspirated and the plates stored at -70° C. Plates were removed from the freezer, and the cells washed with PBS. 100 μl sterile water was added and the cells were freeze fractured by freezing at -70° C. then thawing. The cells were incubated for one hour at room temperature (R/T) with PBS/3% BSA (wash buffer, bovine serum albumin), then rinsed with a fresh aliquot of wash buffer. Cells were incubated with 50 μl of primary antibodies monoclonal anti-human transglutaminase mouse antibody (IgG) obtained from Biomedical Industries diluted 1:2,000 in wash buffer for one hour, 37° C. then rinsed two times with wash buffer. Cells were then incubated with 50 μl of secondary antibody (Fab fragment, peroxidase conjugated anti-mouse IgG obtaining from Amersham) diluted 1:4,000 in wash buffer for one hour at 37° C., then rinsed two times with wash buffer. […] The absorbance of samples was read at 492 nm in the plate reader. […] TGase levels were determined by subtracting background from the readings from each treatment and determining mean±s.d. for the replicates exposed to both Ab.
The level of TGase-1 detected after treatment of the cells could be influenced by cell number, i.e., the greater the number of cells the greater the level of TGase-1 detected. […]

keratinocytes [3] = test: Transglutaminase assay, keratinocyte differentiation (Example 4), normalized to DNA; assay type: cell-based, Human; settings: for activity at […]: .00025 mM; for effect on transglutaminase / keratinocyte differentiation (in words): Table D, both experiments; for activity at 1000 µM: 1 mM
Method: as §1, §2
Keratinocytes (cultured as described above) were plated in 96 well plates at a density of 3,000 cells per well in 200 μl of cell culture media. After incubation for four days, the media was changed to media containing test compounds (six replicates per test). The cells were cultured for a further 72 hours after which time the media was aspirated and the plates stored at -70° C. After the plates were removed from the freezer, the cells were further freezed fractured by freezing and thawing and then washed 3× with PBS. The cells were incubated for one hour at room temperature (R/T) with TBS/5% BSA buffer. Cells were then incubated with 100 μl of monoclonal anti-human transglutaminase (IgG) mouse antibody (primary antibody) obtained from Biomedical Technologies Inc. diluted 1:2000 in TBS/1% BSA buffer for two hours at 37° C., and then rinsed six times with wash buffer (TBS/1% BSA/0.05% Tween-20). Cells were next incubated with 100 μl of Fab fragment, peroxidase conjugated anti-mouse IgG antibody (secondary antibody) from Amersham diluted 1:4,000 in wash buffer for two hours at 37° C. and then rinsed three times with wash buffer and three times with PBS. Cells were incubated with substrate solution (4 mg o-phenylene diamine and 3.3 μl 30% H2 O2 in 10 mL 0.1M citrate buffer, pH 5.0) for five minutes at R/T and in darkness (under aluminum foil). The reaction was stopped by the addition of 50 μl 4N H2SO4. The absorbance of samples was read at 492 nm in the plate reader. Out of the six replicates, four were treated with both antibodies, two were treated only with the secondary antibody (i.e., to determine the background binding of the enzyme conjugated antibody). Transglutaminase I levels were determined by subtracted background from the readings from each treatment and determining the mean s.d. for the replicates exposed to both antibodies.
The level of TGase-1 detected after treatment of the cells could be influenced by cell number, i.e., the greater the number of cells the greater the level of TGase-1 detected. The level of TGase-1 was normalized to DNA content of the cells in the same well thus eliminating variation due to differences in cell number. […]

LRAT = biological target: T1, LRAT (Bos taurus, UniProt Q9BGL2); test: In vitro microsomal esterification of retinol, LRAT catalyzed (retinyl laurate formation); assay type: biochemical, bovine; settings: for inhibition at 10 µM: Table B
T1 construct: microsomal fraction isolated from bovine retinal pigment epithelial cells; from tissue; host or cells: bovine retinal pigment epithelial cells, microsomal fraction
T1 sequence (Q9BGL2 1-230): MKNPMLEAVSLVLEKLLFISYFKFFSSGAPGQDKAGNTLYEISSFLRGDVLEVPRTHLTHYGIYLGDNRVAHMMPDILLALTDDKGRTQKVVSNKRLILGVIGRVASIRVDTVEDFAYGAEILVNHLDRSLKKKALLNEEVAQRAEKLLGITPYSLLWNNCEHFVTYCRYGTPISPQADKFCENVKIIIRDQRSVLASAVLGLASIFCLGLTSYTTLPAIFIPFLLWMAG

[4] = Homo sapiens, Keratinocyte, Experiment 2, read-out: Transglutaminase level, % CONTROL

Compound: CC1=C(/C=C/C(C)=C/C=C/C(C)=C/C(=O)O)C(C)(C)CCC1 [Retinoic acid]
keratinocyte proliferation (in words) (keratinocytes [1]; […]10^-7 M, […]10^-8 and […]10^-9 M, over ethanol control and each retinol treatment): significantly increased keratinocyte proliferation | mean Thymidine incorp./μg protein ± s.d (keratinocytes [1]; […] 10^-7 M): 2475 ± 116 DPM/μg protein | mean Thymidine incorp./μg protein ± s.d (keratinocytes [1]; […] 10^-8 M): 2686 ± 72 DPM/μg protein | mean Thymidine incorp./μg protein ± s.d (keratinocytes [1]; […] 10^-9 M): 2556 ± 80 DPM/μg protein | keratinocyte differentiation / transglutaminase level (in words) (keratinocytes [2]): decreased keratinocyte differentiation | activity at […] (keratinocytes [3]; Homo sapiens, Keratinocyte, read-out: Transglutaminase level, % CONTROL, Experiment 1): 24% | activity at […] (keratinocytes [3]; Homo sapiens, Keratinocyte, read-out: Transglutaminase level, % CONTROL, Experiment 2): 8%

Compound: CC1=C(/C=C/C(C)=C/C=C/C(C)=C/CO)C(C)(C)CCC1 [Retinol]
mean Thymidine incorp./μg protein ± s.d (keratinocytes [1]; […] 10^-7 M): 2218 ± 73 DPM/μg protein | mean Thymidine incorp./μg protein ± s.d (keratinocytes [1]; […] 10^-8 M): 2034 ± 46 DPM/μg protein | mean Thymidine incorp./μg protein ± s.d (keratinocytes [1]; […] 10^-9 M): 1977 ± 19 DPM/μg protein | keratinocyte differentiation / transglutaminase level (in words) (keratinocytes [2]): The decrease in transglutaminase level was dose dependent | mean TGase/DNA × 10^-4 ± s.d (keratinocytes [2]; […] 10^-7 M): 1.14 ± 0.22 × 10^-4 | mean TGase/DNA × 10^-4 ± s.d (keratinocytes [2]; […] 10^-8 M): 1.89 ± 0.30 × 10^-4 | mean TGase/DNA × 10^-4 ± s.d (keratinocytes [2]; […] 10^-9 M): 2.70 ± 0.59 × 10^-4 | activity at 1 µM (keratinocytes [3]; Homo sapiens, Keratinocyte, Experiment 1, .001 mM, read-out: Transglutaminase level, % CONTROL): 67% | activity at […] (keratinocytes [3]; [4]): 63.5% | effect on transglutaminase / keratinocyte differentiation (in words) (keratinocytes [3]): not very effective

Compound: C=CCCC(=O)/C=C/C1C(C)=CCCC1(C)C (stereo not drawn) [allyl alpha ionone]
inhibition at 10 µM (LRAT): 17%

Compound: C/C=C/C(=O)C1C(C)=CCCC1(C)C (stereo not drawn) [alpha damascone]
activity at 1000 µM (keratinocytes [3]; Homo sapiens, Keratinocyte, Experiment 1, read-out: Transglutaminase level, % CONTROL): 92% | activity at 1000 µM (keratinocytes [3]; [4]): 86% | effect on transglutaminase / keratinocyte differentiation (in words) (keratinocytes [3]): not very effective

Compound: C/C=C/C(=O)C1C(C)=CC=CC1(C)C (stereo not drawn) [damascenone]
inhibition at 100 µM (LRAT; Table A, 100 μM): 79% | inhibition at 10 µM (LRAT): 29%

Compound: CC(=O)CCC1C(C)=CCCC1(C)C (stereo not drawn) [dihydro alpha ionone]
inhibition at 100 µM (LRAT; Table C (comparative), 100 μM): 18%

The next lines start with the values.

inhibition at 100 µM (LRAT; Table A, 100 μM): 38%
Compound: C=C1CCCC(C)(C)C1/C=C/C(=O)CC (stereo not drawn) [gamma methyl ionone]

% INHIBITION, LRAT (LRAT; Table C (comparative), 100 μM): 0%
Compound: CC(C)[C@@H]1CC[C@@H](C)CC1=O [mentone]

inhibition at 100 µM (LRAT; Table A, 100 μM): 33%
Compound: CCCC(O)CCC1C(C)CCCC1(C)C (stereo not drawn) [timberol]
